For 25 molecules, IC50 results are on record in the Kinase Knowledgebase extract (Sharma et al. 2016).

In general, IC50 refers to the concentration at which inhibition is half-maximal. The low end stands for inhibition by little substance, the high end for a need for much substance.

≈ marks a conversion by molar mass, not a printed value.

This assay addresses CDK2 (human) (UniProt P24941). Description: Enzyme Assay.
`CNCc1ccc(C=NNc2ncnc3sc(C(C)(C)C)cc23)cc1` displayed a half-maximal inhibitory concentration (IC50) of 0.68 µg/mL (≈ 1.92 µM).
The value for `CC(C)(C)c1cc2c(NN=Cc3nc(CN)cs3)ncnc2s1` was 0.38 µg/mL (≈ 1.1 µM).
`CC(C)(C)c1cc2c(NN=Cc3cncs3)ncnc2s1` came in with an IC50 of 0.059 µg/mL (≈ 0.186 µM).
The value for `CCCC(C)c1cc2c(NN=Cc3nc(CNC)cs3)ncnc2s1` (stereo not given) was 1.4 µg/mL (≈ 3.74 µM); that for `CNCc1csc(C=NNc2ncnc3sc(C(C)C(C)C)cc23)n1` (stereo not given) was 0.88 µg/mL (≈ 2.35 µM); that for `CNCc1csc(C=NNc2ncnc3sc(C(C)(C)C)cc23)n1` was 0.98 µg/mL (≈ 2.72 µM).
The value for `CC(C)(C)c1cc2c(NN=Cc3nccs3)ncnc2s1` was 0.2 µg/mL (≈ 0.63 µM); that for `CCC(N)c1csc(C=NNc2ncnc3sc(C(C)(C)C)cc23)n1` (stereo not given) was 1.4 µg/mL (≈ 3.74 µM); that for `CNC(C)c1csc(C=NNc2ncnc3sc(C(C)(C)C)cc23)n1` (stereo not given) was 1.1 µg/mL (≈ 2.94 µM).
With `CC(C)(C)c1cc2c(NN=Cc3nc(C4CCNC4)cs3)ncnc2s1` (stereo not given) the figure was 1.8 µg/mL (≈ 4.66 µM).
For `CNCc1csc(C=NNc2ncnc3sc(C4CCC4)cc23)n1`, the IC50 stood at 1.4 µg/mL (≈ 3.91 µM).
The value for `CN(C)Cc1csc(C=NNc2ncnc3sc(C(C)(C)C)cc23)n1` was 1.4 µg/mL (≈ 3.74 µM).
With `CNCc1csc(C=NNc2ncnc3sc(C4CCCCC4)cc23)n1` the figure was 0.81 µg/mL (≈ 2.1 µM); with `CNCc1cnc(C=NNc2ncnc3sc(C(C)(C)C)cc23)s1`, 0.35 µg/mL (≈ 0.971 µM).
The value for `CC(C)(C)c1cc2c(NN=Cc3cscn3)ncnc2s1` was 2.2 µg/mL (≈ 6.93 µM); that for `CC(N)c1csc(C=NNc2ncnc3sc(C(C)(C)C)cc23)n1` (stereo not given) was 0.83 µg/mL (≈ 2.3 µM).
Turning to `CC(C)(C)c1cc2c(NN=Cc3nc4c(s3)CNC4)ncnc2s1`, the IC50 came to 0.2 µg/mL (≈ 0.558 µM).
The value for `CC(C)(C)c1cc2c(NN=Cc3nc(C4CCNCC4)cs3)ncnc2s1` was 1.7 µg/mL (≈ 4.24 µM); that for `CCC(C)c1cc2c(NN=Cc3nc(CNC)cs3)ncnc2s1` (stereo not given) was 0.44 µg/mL (≈ 1.22 µM).
Consider `CNCc1csc(C=NNc2ncnc3sc(C4CC4)cc23)n1`, for which the IC50 is greater than 2 µg/mL.
With `CC(N)c1csc(C=NNc2ncnc3sc(C(C)(C)CF)cc23)n1` (stereo not given), the IC50 amounted to 0.68 µg/mL (≈ 1.8 µM).
The value for `CNCc1csc(C=NNc2ncnc3sc(C(C)C)cc23)n1` was 1.5 µg/mL (≈ 4.33 µM); that for `CNCc1csc(C=NNc2ncnc3sc(C(C)(C)CO)cc23)n1` was 1.8 µg/mL (≈ 4.78 µM).
The value for `CC(C)(C)c1cc2c(NN=Cc3nc(C4CNC4)cs3)ncnc2s1` was 1 µg/mL (≈ 2.68 µM).
With `CNCc1csc(C=NNc2ncnc3sc(C(C)(C)CF)cc23)n1` the figure was 1.8 µg/mL (≈ 4.76 µM).
